For test [1], the target named is T1, hMC4R (Homo sapiens, UniProt P32245). Nature of the test: hMC4R. More on the design: expressed in transfected cells; host or cells: HEK293.
Target sequence in this assay (P32245 whole entry, looked up): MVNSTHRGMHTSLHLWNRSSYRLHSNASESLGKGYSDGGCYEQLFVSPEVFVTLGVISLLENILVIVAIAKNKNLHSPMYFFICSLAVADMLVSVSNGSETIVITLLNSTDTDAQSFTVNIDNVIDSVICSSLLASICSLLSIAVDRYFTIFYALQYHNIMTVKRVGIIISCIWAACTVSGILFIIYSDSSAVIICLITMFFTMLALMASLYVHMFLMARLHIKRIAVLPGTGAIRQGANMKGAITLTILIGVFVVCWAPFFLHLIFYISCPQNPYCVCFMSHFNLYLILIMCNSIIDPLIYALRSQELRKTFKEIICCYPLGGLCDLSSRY
For test [2], the target named is T1, hMC4R.
Target sequence in this assay (P32245 whole entry): as the sequence (P32245 whole entry, looked up) above
For test [3], the system named is cMC4R. Nature of the test: cMC4R.
Test [4] addresses T2, hMC3R (Homo sapiens, UniProt P41968).
Target sequence in this assay (P41968 whole entry): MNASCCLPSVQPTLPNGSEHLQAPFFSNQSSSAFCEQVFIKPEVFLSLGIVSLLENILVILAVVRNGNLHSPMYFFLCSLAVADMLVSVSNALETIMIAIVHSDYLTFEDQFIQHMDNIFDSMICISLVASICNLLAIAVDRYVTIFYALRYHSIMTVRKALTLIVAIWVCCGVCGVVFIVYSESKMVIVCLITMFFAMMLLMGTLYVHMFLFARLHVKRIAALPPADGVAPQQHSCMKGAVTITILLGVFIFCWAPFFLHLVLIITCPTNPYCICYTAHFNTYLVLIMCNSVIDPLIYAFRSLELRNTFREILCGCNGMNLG
Test [5] concerns the target T2, hMC3R. Kind of test: hMC3R. More on the design: expressed in transfected cells; host or cells: HEK293.
Target sequence in this assay (P41968 whole entry, looked up): as the sequence (P41968 whole entry) above
Test [6] deals with canine MC4R (canine).
The target of test [7] is T2, hMC3R. The source holds these as a separate data set.
Target sequence in this assay (P41968 whole entry): as above
Test [8] concerns cMC4R. Kind of test: FLIPR calcium release assay in HEK293a/cMC4R/Gα15, Gα16 cells. Particulars: read-out: EC50, agonist stimulated calcium release; HEK293a/cMC4R/Gα15, Gα16, Fluo-4.
In test [9] the target is canine MC4R (canine). Nature of the test: cell-based or functional assay.
Test [10] relates to Obese Beagle Dogs. Kind of test: Indirect calorimetry following ICV injection in lateral ventricle cannulated dogs. It is filed as in vivo, dog. Particulars: NDP-MSH 75 mol. The source says:
(§1) Healthy, (1-3 years of age) male and female beagles (Marshall Farms, North Rose N.Y.) weighing 11-15 kg were employed as test subjects. The animals were surgically implanted with lateral ventricle cannulas using standard techniques. Wilsson-Rahmberg et al., 1998, J. Investigative Surgery, 11:207-214. Cannula placement and patency were confirmed with fluoroscopy. The dogs were housed individually in standard caging meeting or exceeding the USDA regulations (U.S. Department of Agriculture, Animal Welfare, Final Rules. 9 C.F.R. Parts 1-3,1995).
Each subject received a single 50 μl injection in one lateral ventricle (ICV injection) of one of 3 solutions: 30-100 nmol of the non-specific melanocortin (MC) receptor agonist [N1 e^4, D-Phe^7]-α-MSH (hereinafter “NDP-MSH,” Bachem Bioscience Inc., King of Prussia Pa.), 1-2 nmol of the MC3/4 receptor antagonist SHU-9119 (Bachem Bioscience Inc., King of Prussia, Pa.) or vehicle which consisted of artificial cerebrospinal fluid (hereinafter “aCSF,” Harvard Apparatus, Holliston, Mass.). NDP-MSH and SHU-9119 were received as a dry powder and were reconstituted with aCSF to achieve an appropriate concentration for a ^50 μl injection. Following ICV injection, resulting effects on food intake or metabolic rate were determined.
The studies consisted of one group of animals containing five dogs. In study 1, dogs received either NDP-MSH or aCSF on day 0 in a cross-over design with two dogs receiving NDP-MSH first and three dogs receiving aCSF first. Resulting effects on food intake were determined. In study 2, dogs received either SHU-9119 or aCSF on day 0 in a cross-over design with two dogs receiving SHU-9119 first and three dogs receiving aCSF first. Resulting effects on food intake were determined. In study 3, dogs received either NDP-MSH or aCSF on day 0 in a cross-over design with three dogs receiving NDP-MSH first and two dogs receiving aCSF first. Resulting effects on metabolic rate were determined. In study 4, dogs received either SHU-9119 or aCSF on day 0 in a cross-over design with three dogs receiving SHU-9119 first and two dogs receiving aCSF first. Resulting effects on metabolic rate were determined. Each test animal was permitted ad libitum access to water and IAMS […]® (The IAMS Company, Dayton Ohio) dry food each day during the study unless otherwise noted.
Reduction or increase in metabolic rate was measured by standard indirect calorimetry using an open circuit calorimeter (OXYMAX DELUXE@, Columbus Instruments, Columbus Ohio). Dogs were fasted for approximately 18 hours prior to ICV injection. Calorimetry sessions were initiated approximately 2 hours after ICV injection and lasted for 60-90 minutes.

Test [11] concerns Obese Beagle Dogs. Nature of the test: 24 hr food intake following ICV injection in lateral ventricle cannulated dogs. It is filed as in vivo, dog. Particulars: NDP-MSH 100 nmol.
From the text: as §1
Each subject received a single 50 μl injection in one lateral ventricle (ICV injection) of one of 3 solutions: 30-100 nmol of the non-specific melanocortin (MC) receptor agonist [N1 e^4, D-Phe^7]-α-MSH (hereinafter “NDP-MSH,” Bachem Bioscience Inc., King of Prussia Pa.), 1-2 nmol of the MC3/4 receptor antagonist SHU-9119 (Bachem Bioscience Inc., King of Prussia, Pa.) or vehicle which consisted of artificial cerebrospinal fluid (hereinafter “aCSF,” Harvard Apparatus, Holliston, Mass.). […] Following ICV injection, resulting effects on food intake or metabolic rate were determined.
The studies consisted of one group of animals containing five dogs. […] Resulting effects on food intake were determined. […] Resulting effects on food intake were determined. […] Resulting effects on metabolic rate were determined. […] Resulting effects on metabolic rate were determined. […]

In test [12] the target is T1, hMC4R. The source holds these as a separate data set.
Target sequence in this assay (P32245 whole entry): as the sequence (P32245 whole entry, looked up) above
Test [13] has as its target canine MC4R (Canis lupus familiaris, UniProt A0A2Z6BEC9). The conditions noted are these: 1 pM α-MSH.
Setting [14] is: ICV injection, SHU 9119 2 nmol, about 2 hours after injection, fasted dogs.
The mark [15] stands for this setting: versus aCSF control, SHU 9119 2 nmol ICV.

pEC50, pIC50: −log10 of the molar value. Where two headings read alike, the source gives them in different places. Marks after values point to notes of the source that are not given here. Residues, ends and D or L forms follow the SMILES beside them.

Chain of canine MC4R (canine) (Q0Z8I9 other isoform, or with tags, fused parts or gaps): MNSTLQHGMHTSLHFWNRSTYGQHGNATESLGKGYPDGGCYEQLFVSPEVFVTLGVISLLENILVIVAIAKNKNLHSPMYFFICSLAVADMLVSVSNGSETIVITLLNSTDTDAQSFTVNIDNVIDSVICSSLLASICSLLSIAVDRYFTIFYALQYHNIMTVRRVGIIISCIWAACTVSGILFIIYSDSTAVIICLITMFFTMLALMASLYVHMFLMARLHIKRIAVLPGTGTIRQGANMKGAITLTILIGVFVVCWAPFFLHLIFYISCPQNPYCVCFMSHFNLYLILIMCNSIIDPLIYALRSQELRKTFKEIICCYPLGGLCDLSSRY
Chain of canine MC4R (A0A2Z6BEC9 1-332): as the sequence (Q0Z8I9 other isoform, or with tags, fused parts or gaps) above

For `N=C(N)NCCC[C@@H]1NC(=O)[C@@H](Cc2ccc3ccccc3c2)NC(=O)[C@H](Cc2c[nH]cn2)NC(=O)[C@H](CCC(=O)O)NC(=O)CCSSC[C@@H](C(=O)N2CCC[C@H]2C(=O)N2CCC[C@H]2C(=O)N[C@@H](CCCCN)C(=O)N[C@@H](CC(=O)O)C(N)=O)NC(=O)CNC(=O)[C@H](Cc2c[nH]c3ccccc23)NC1=O` [JKC363] (HELM PEPTIDE1{[O=C(CCS[*:3])[*:2]].E.H.[O=C([C@@H](Cc1ccc2ccccc2c1)N[*:1])[*:2]].R.W.G.C.P.P.K.D.[am]}$PEPTIDE1,PEPTIDE1,1:R3-8:R3$$$V2.0; C-terminus assumed), the pIC50 in [1] was 8.88; in [2], 8.68; in test [3] it was 9.01; in test [4], 7.64; in test [5], 7.82.

For the compound JKC363 (peptide), the figures for the pIC50 in test [6] and in test [7] were 8.90 and 7.64, respectively.

As to MTII, the pEC50 in test [8] is 8.00.

On to MTII (peptide), for which the pIC50 in test [6] was 9.06. Moreover, in [9], the EC50, agonist stimulated calcium release (FLIPR, HEK293a/cMC4R/Gα15, Gα16 cells) came out at 10 nM.

Take SHU9119: in test [10] (setting [14]), the “Heat Produced, Average” value worked out at 13 kcal/h and the “VO2, Average” value worked out at 3.6 mL/min/kg. For the same compound, in [10] (setting [15]), the “Heat Produced, % Change” value is on record as −37* % and the “VO2, % Change” value is given as −38* %. The “24 hr Food Intake, Average” value in [11] (ICV injection, SHU 9119 2 nmol) came to 366 g. The “24 hr Food Intake, % Change” value in [11] (setting [15]) is listed as “+132* %”.

As to SHU9119 (peptide), the negative-log IC50 (pIC50) in test [12] is 10.93; in test [7] it was 9.73. In test [9], the IC50, antagonist inhibition of calcium release in the presence of 20 nM NDP-MSH agonist (FLIPR) stood at 2 nM.

Take α-MSH: the negative-log EC50 (pEC50) in test [8] was 7.26. Besides, the “concentration of cAMP” value in test [13] (30 minutes, most concentrated batch of cells (1.5×10^6 cells/ml)) worked out at 13.82 pmol/mL. In addition, the “cAMP levels over background” value in test [13] (cells at each concentration (0.5, 1.0, 1.5×10^6 cells/ml)) is “significant increase”. Besides, the “difference in cAMP versus negative control cells” value in test [13] (most concentrated batch of cells) is on record as “almost ten-fold”.

In the case of “α-MSH (from UniProt P01189 138-150) (peptide)”, in test [9], the EC50, agonist stimulated calcium release (FLIPR, HEK293a/cMC4R/Gα15, Gα16 cells) is 55 nM; the cAMP, fold over negative control cells worked out at 10 fold; the concentration of cAMP in α-MSH treated cells (1.5×10^6 cells/ml) came to 13.8 pmol/mL.

Usually pIC50 stands for −log10 of the IC50, conventionally taken in molar units. Usually pEC50 stands for the EC50 on a negative log10 scale, so that one unit is a factor of ten.

The record behind these values is patent publication US20030032791A1, “Novel melanocortin-4 receptor sequences and screening assays to identify compounds useful in regulating animal appetite and metabolic rate” (priority 2000, published 2003).
